In patent EP0349354A1, “Peptides PF10 to PF19 from a retro virus HIV, method for the synthesis of these peptides and their use, particularly in diagnostics” (INSTITUT PASTEUR, priority 1988, dated 1990):
Where no end group is shown, it is not given here. The star is where a group is joined. Acm = CC(=O)NC*

Experiments:
[1] = test system: anticorps anti-protéine F; assay: Western blot test on peptide spots with sera of HIV-1 infected patients; type: binding, humain; set-up: key to réaction avec sérum CHA 1/300, 10µl / réaction avec sérum LOM 1/100, 10µl / réaction avec sérum LOM 1/100, 5µl / réaction avec sérum CHA 1/300, 5µl / réaction avec sérum CHA 1/300, 2µl / réaction avec sérum CHA 1/300, 1µl / réaction avec sérum 1545 1/200, 10µl: ++ signifiant une réaction plus marquée
Experimental: Pour les besoins du test, les différents peptides PF16, PF19, PF13, PF17 utilisés sont dilués à une concentration de 2 mg/ml.
Sur une bande de papier BIORAD pour transblot, on dépose différents spots : 1µl, 2µl, 5µl, 10µl.
Après séchage on pratique un test Western Blot classique en utilisant comme anticorps des sérums de patients infectés par le virus HIV-1, positifs pour la protéine F, à des dilutions variant de 1/100 à 1/300.
Les peptides testés permettent d'aboutir aux résultats résumés dans le tableau 2 avec trois sérums différents anti-F ++ (++ signifiant une réaction plus marquée).

[2] = test system: anticorps, monoclonal anti-protéine F d'un rétrovirus HIV-1; assay: ELISA with mouse monoclonal anti-protein F antibody; type: binding, souris; conditions: antibody produced in mouse
Source text: Par ailleurs, les inventeurs ont constaté qu'un anticorps, monoclonal anti-protéine F d'un rétrovirus HIV-1 produit chez la souris reconnait le peptide PF16 de l'invention dans un test ELISA.

anticorps anti-nef = assay: ELISA for detection of anti-nef antibodies on coated peptides or nef; type: binding, humain

With “GMDDPEREVLEWRFDSRLAFHHVARELHPEYFKNC(acm) (GMDDPEREVLEWRFDSRLAFHHVARELHPEYFKNC(Acm)) [PF16, protéine F HIV-1, séquence 171-205]” the “réaction avec sérum 1545 1/200, 10µl” value ([1]; serum 1545 diluted 1/200, spot 10µl of peptide at 2 mg/ml) was “++”, the “réaction avec sérum CHA 1/300, 1µl” value ([1]; serum CHA diluted 1/300, spot 1µl of peptide at 2 mg/ml) was “++” and the “réaction avec sérum CHA 1/300, 2µl” value ([1]; serum CHA diluted 1/300, spot 2µl of peptide at 2 mg/ml) was “++”. For the same substance, the “réaction avec sérum CHA 1/300, 5µl” value ([1]; serum CHA diluted 1/300, spot 5µl of peptide at 2 mg/ml) was “++”, the “réaction avec sérum CHA 1/300, 10µl” value ([1]; serum CHA diluted 1/300, spot 10µl of peptide at 2 mg/ml) was “++” and the “réaction avec sérum LOM 1/100, 5µl” value ([1]; serum LOM diluted 1/100 (column outside the heading of positive sera), spot 5µl of peptide at 2 mg/ml) was “++”. The “réaction avec sérum LOM 1/100, 10µl” value ([1]; serum LOM diluted 1/100 (column outside the heading of positive sera), spot 10µl of peptide at 2 mg/ml) was “++”, the “reconnaissance par un anticorps monoclonal anti-protéine F” value [2] was “reconnait” and the “nombre de sérums anti-nef positifs ayant réagi” value (anticorps anti-nef; ELISA, out of 31 anti-nef positive sera) was 26. The “intensité de l'immunoréactivité (OD), Serum 1” value (anticorps anti-nef; Serum 1, anti-nef positive, 500 ng coated per well) was “+++ (pour OD = 0,8 à 2,0)”, the “intensité de l'immunoréactivité (OD), Serum 2” value (anticorps anti-nef; Serum 2, anti-nef positive, 500 ng coated per well) was “+++ (pour OD = 0,8 à 2,0)” and the “intensité de l'immunoréactivité (OD), Serum 3” value (anticorps anti-nef; Serum 3, anti-nef positive, 500 ng coated per well) was “+ (pour OD = 0,2 à 0,4)”. The “intensité de l'immunoréactivité (OD), Serum 4” value (anticorps anti-nef; Serum 4, anti-nef positive, 500 ng coated per well) was “+++ (pour OD = 0,8 à 2,0)”, the “intensité de l'immunoréactivité (OD), Serum 5” value (anticorps anti-nef; Serum 5, anti-nef positive, 500 ng coated per well) was “+++ (pour OD = 0,8 à 2,0)” and the “intensité de l'immunoréactivité (OD), Serum 6” value (anticorps anti-nef; Serum 6, anti-nef positive, 500 ng coated per well) was “+++ (pour OD = 0,8 à 2,0)”. The “intensité de l'immunoréactivité (OD), Serum 7” value (anticorps anti-nef; Serum 7, anti-nef positive, 500 ng coated per well) was “- (pour une densité optique (OD) inférieure à 0,2)”, the “intensité de l'immunoréactivité (OD), Serum 8” value (anticorps anti-nef; Serum 8, anti-nef positive, 500 ng coated per well) was “- (pour une densité optique (OD) inférieure à 0,2)” and the “intensité de l'immunoréactivité (OD), Serum 9” value (anticorps anti-nef; Serum 9, anti-nef positive, 500 ng coated per well) was “- (pour une densité optique (OD) inférieure à 0,2)”. For the same substance, the “intensité de l'immunoréactivité (OD), Serum 10” value (anticorps anti-nef; Serum 10, anti-nef positive, 500 ng coated per well) was “+ (pour OD = 0,2 à 0,4)”, the “intensité de l'immunoréactivité (OD), Serum 11” value (anticorps anti-nef; Serum 11, anti-nef positive, 500 ng coated per well) was “+ (pour OD = 0,2 à 0,4)” and the “intensité de l'immunoréactivité (OD), Serum 12” value (anticorps anti-nef; Serum 12, anti-nef positive, 500 ng coated per well) was “- (pour une densité optique (OD) inférieure à 0,2)”. For the same substance, the “intensité de l'immunoréactivité (OD), Serum 13” value (anticorps anti-nef; Serum 13, anti-nef positive, 500 ng coated per well) was “++ (pour OD = 0,4 à 0,8)”, the “intensité de l'immunoréactivité (OD), Serum 14” value (anticorps anti-nef; Serum 14, anti-nef positive, 500 ng coated per well) was “- (pour une densité optique (OD) inférieure à 0,2)” and the “intensité de l'immunoréactivité (OD), Serum 15” value (anticorps anti-nef; Serum 15, anti-nef positive, 500 ng coated per well) was “+++ (pour OD = 0,8 à 2,0)”. The “intensité de l'immunoréactivité (OD), Serum 16” value (anticorps anti-nef; Serum 16, anti-nef positive, 500 ng coated per well) was “+++ (pour OD = 0,8 à 2,0)”, the “intensité de l'immunoréactivité (OD), Serum 17” value (anticorps anti-nef; Serum 17, anti-nef positive, 500 ng coated per well) was “++ (pour OD = 0,4 à 0,8)” and the “intensité de l'immunoréactivité (OD), Serum 18” value (anticorps anti-nef; Serum 18, anti-nef positive, 500 ng coated per well) was “+++ (pour OD = 0,8 à 2,0)”. For the same substance, the “intensité de l'immunoréactivité (OD), Serum 19” value (anticorps anti-nef; Serum 19, anti-nef positive, 500 ng coated per well) was “+++ (pour OD = 0,8 à 2,0)”, the “intensité de l'immunoréactivité (OD), Serum 20” value (anticorps anti-nef; Serum 20, anti-nef positive, 500 ng coated per well) was “++ (pour OD = 0,4 à 0,8)” and the “intensité de l'immunoréactivité (OD), Serum 21” value (anticorps anti-nef; Serum 21, anti-nef positive, 500 ng coated per well) was “+++ (pour OD = 0,8 à 2,0)”. For the same substance, the “intensité de l'immunoréactivité (OD), Serum 22” value (anticorps anti-nef; Serum 22, anti-nef positive, 500 ng coated per well) was “+++ (pour OD = 0,8 à 2,0)”, the “intensité de l'immunoréactivité (OD), Serum 23” value (anticorps anti-nef; Serum 23, anti-nef positive, 500 ng coated per well) was “++ (pour OD = 0,4 à 0,8)” and the “intensité de l'immunoréactivité (OD), Serum 24” value (anticorps anti-nef; Serum 24, anti-nef positive, 500 ng coated per well) was “+++ (pour OD = 0,8 à 2,0)”. For the same substance, the “intensité de l'immunoréactivité (OD), Serum 25” value (anticorps anti-nef; Serum 25, anti-nef positive, 500 ng coated per well) was “+++ (pour OD = 0,8 à 2,0)”, the “intensité de l'immunoréactivité (OD), Serum 26” value (anticorps anti-nef; Serum 26, anti-nef positive, 500 ng coated per well) was “+++ (pour OD = 0,8 à 2,0)” and the “intensité de l'immunoréactivité (OD), Serum 27” value (anticorps anti-nef; Serum 27, anti-nef positive, 500 ng coated per well) was “+ (pour OD = 0,2 à 0,4)”. For the same substance, the “intensité de l'immunoréactivité (OD), Serum 28” value (anticorps anti-nef; Serum 28, anti-nef positive, 500 ng coated per well) was “++ (pour OD = 0,4 à 0,8)”, the “intensité de l'immunoréactivité (OD), Serum 29” value (anticorps anti-nef; Serum 29, anti-nef positive, 500 ng coated per well) was “++ (pour OD = 0,4 à 0,8)” and the “intensité de l'immunoréactivité (OD), Serum 30” value (anticorps anti-nef; Serum 30, anti-nef positive, 500 ng coated per well) was “++ (pour OD = 0,4 à 0,8)”. For the same substance, the “intensité de l'immunoréactivité (OD), Serum 31” value (anticorps anti-nef; Serum 31, anti-nef positive, 500 ng coated per well) was “+++ (pour OD = 0,8 à 2,0)”, the “intensité de l'immunoréactivité (OD), Serum 32” value (anticorps anti-nef; Serum 32, anti-nef negative control serum, 500 ng coated per well) was “- (pour une densité optique (OD) inférieure à 0,2)” and the “intensité de l'immunoréactivité (OD), Serum 33” value (anticorps anti-nef; Serum 33, anti-nef negative control serum, 500 ng coated per well) was “- (pour une densité optique (OD) inférieure à 0,2)”.
